One experiment relates to HEK 293 cells. Briefly: in cellula translation of transfected (AG)10- and (UC)10-FF/HCV/Ren mRNA. In kind it is cell-based. The conditions noted are these: compound added 1 h after mRNA transfection, 6 h exposure. The source says: We next asked if differences in behavior among rocaglates towards the (AG)10- and (UC)10-reporters observed in vitro also extended in cellula (FIG. 26B). This was important since in cells, mRNA transcripts need to compete for components of the translation initiation machinery from a complex cellular mRNA pool and this scenario is difficult to recapitulate in experiments using cell-free extracts. Following mRNA transfections, cells were exposed to compound and luciferase activity determined.
RNA Transfections. HEK 293 cells were transfected in a 24 well plate with 0.25 μg/well of in vitro synthesized capped m^7GpppG(AG)10-FF/HCV/Ren or m^7GpppG(UC)10FF/HCV/Ren mRNA and 1 h later were exposed to the indicated concentrations of compounds for an additional 6 h. Following this, extracts were prepared using passive lysis buffer (PLB, Promega) and luciferase activity measured on a Berthold Lumt LB 9507 luminometer.
FIGS. 26A-26B. In cellula activity of rocaglates. 26A. Cytotoxicity of rocaglates towards NIH/3T3 (grey circle) and the NIH/3T3 rocaglate-resistant line, eIF4A^em1JP(redtriangle). Cells were exposed to 40 nM compound for 4 days and viability was measured using the SRB assay. n=3±SD. 26B. Rocaglates show different sequence preferences for inhibiting cap-dependent translation in cellula. HEK 293 cells were transfected with 0.5 μg of in vitro synthesized capped (AG)10-FF/HCV/Ren or (UC)10-FF/HCV/Ren mRNA and 1h later exposed to the indicated concentrations of compounds for an additional 6 h, at which time extracts were prepared and luciferase activity measured. n=3 SD.
FIG. 28. In cellula dose-response of (AG)10- and (UC)10-FF/HCV/Ren mRNAs to hippuristanol and pateamine. Firefly and renilla luciferase activity in response to the indicated compound concentrations (relative to DMSO controls) following mRNA transfections in 293 cells. n=3±SD.

In the next experiment the target is T1, eIF4A1 (Oryctolagus cuniculus, UniProt P29562).
T1 construct: Rabbit reticulocyte lysates (Promega) were pre-incubated with 500 nM of the indicated compound; tissue Promega; host or cells: rabbit reticulocyte lysate
T1 sequence (P29562 whole entry): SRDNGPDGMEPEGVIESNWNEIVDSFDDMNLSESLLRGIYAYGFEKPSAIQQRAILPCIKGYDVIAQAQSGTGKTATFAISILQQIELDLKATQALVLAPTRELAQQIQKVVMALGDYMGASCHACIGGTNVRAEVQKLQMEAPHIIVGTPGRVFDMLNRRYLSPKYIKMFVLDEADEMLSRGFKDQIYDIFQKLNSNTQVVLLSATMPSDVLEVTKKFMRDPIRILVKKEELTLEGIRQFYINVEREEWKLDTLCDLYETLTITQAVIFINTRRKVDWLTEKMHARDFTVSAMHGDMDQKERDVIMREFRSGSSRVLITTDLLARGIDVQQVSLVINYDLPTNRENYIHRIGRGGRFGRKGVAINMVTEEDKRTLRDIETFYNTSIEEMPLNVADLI
Briefly: RNA pulldowns (RPDs) with biotinylated RNA baits in translation extracts. In kind it is binding, Rabbit. The conditions noted are these: 500 nM rocaglate, retic lysate. The method, then:
To determine the ability of rocaglates to recruit eIF4A to RNA in translation extracts, RNA pulldowns (RPDs) using 30 nt polypurine—or polypyrimidine-biotinylated RNA baits were performed. RNA baits were added to in vitro translation extracts in the presence or absence of rocaglate followed by purification using immobilized streptavidin. […] When the RPDs were performed using ApppG-capped RNA with purified eIF4A1 or eIF4F rather than translation extracts, an increase in eIF4A1:polypyrimidine RNA association with silvestrol was not observed (FIG. 25B).
RNA Pull Down (RPD) Experiments. Rabbit reticulocyte lysates (Promega) were pre-incubated with 500 nM of the indicated compound for 15 minutes at 30° C. prior to the addition of m7GpppG- or ApppG-capped biotinylated RNAs (added to a final concentration of 1 μM biotinylated RNA bait). The reactions were incubated for an additional 15 minutes at 30° C. and then diluted 10× with ice cold wash buffer (0.5% v/v NP-40, 50 mM HEPES (pH 7.3), 150 mM KCl, 2 mM EDTA, 2 mM MgC2,). Magnetic streptavidin beads (NEB) were used to capture the biotinylated RNA baits and the reactions were incubated end over end for 1 hour at 4° C. The beads were then washed three times with ice cold wash buffer (10 minutes per wash) and the RNA bound proteins were eluted by digesting with 50 U of RNaseI (Ambion, AM2294) for 15 minutes at 37° C. Eluted proteins were analyzed by Western blotting.
FIGS. 25A-25B. […] 25A. RPDs performed with the indicated m^7GpppG- or ApppG-capped RNA species incubated in the presence of retic lysate and either vehicle or 500 nM rocaglate. 25B. RPDs performed with m^7GpppG-capped RNA species incubated in the presence of recombinant eIF4A (125 nM) eIF4F or Krebs-2 extracts and either vehicle or 500 nM silvestrol.

For another experiment, the target named is T2, eIF4F (Mus musculus, UniProt P60843).
T2 construct: endogenous in cells; host or cells: Krebs-2 cell-free translation extract
T2 sequence (P60843 2-406 limits assumed): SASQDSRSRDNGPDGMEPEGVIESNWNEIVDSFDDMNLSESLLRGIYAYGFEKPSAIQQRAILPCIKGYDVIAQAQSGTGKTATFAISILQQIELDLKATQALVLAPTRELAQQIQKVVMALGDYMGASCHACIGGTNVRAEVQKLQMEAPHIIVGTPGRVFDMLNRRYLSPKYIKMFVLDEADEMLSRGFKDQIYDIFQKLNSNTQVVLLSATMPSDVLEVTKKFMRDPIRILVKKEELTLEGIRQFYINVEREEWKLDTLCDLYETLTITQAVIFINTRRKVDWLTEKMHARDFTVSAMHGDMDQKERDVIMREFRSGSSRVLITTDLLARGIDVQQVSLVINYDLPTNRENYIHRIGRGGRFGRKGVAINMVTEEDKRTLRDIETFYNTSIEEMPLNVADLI
T2 sequence (P63073 2-217 partner limits assumed): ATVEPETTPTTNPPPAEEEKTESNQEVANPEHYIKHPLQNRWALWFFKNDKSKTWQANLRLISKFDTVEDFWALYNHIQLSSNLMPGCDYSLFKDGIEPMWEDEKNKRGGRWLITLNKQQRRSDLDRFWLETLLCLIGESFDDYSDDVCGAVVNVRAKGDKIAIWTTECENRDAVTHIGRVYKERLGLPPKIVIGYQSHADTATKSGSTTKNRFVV
T2 sequence (Q6NZJ6 whole entry partner): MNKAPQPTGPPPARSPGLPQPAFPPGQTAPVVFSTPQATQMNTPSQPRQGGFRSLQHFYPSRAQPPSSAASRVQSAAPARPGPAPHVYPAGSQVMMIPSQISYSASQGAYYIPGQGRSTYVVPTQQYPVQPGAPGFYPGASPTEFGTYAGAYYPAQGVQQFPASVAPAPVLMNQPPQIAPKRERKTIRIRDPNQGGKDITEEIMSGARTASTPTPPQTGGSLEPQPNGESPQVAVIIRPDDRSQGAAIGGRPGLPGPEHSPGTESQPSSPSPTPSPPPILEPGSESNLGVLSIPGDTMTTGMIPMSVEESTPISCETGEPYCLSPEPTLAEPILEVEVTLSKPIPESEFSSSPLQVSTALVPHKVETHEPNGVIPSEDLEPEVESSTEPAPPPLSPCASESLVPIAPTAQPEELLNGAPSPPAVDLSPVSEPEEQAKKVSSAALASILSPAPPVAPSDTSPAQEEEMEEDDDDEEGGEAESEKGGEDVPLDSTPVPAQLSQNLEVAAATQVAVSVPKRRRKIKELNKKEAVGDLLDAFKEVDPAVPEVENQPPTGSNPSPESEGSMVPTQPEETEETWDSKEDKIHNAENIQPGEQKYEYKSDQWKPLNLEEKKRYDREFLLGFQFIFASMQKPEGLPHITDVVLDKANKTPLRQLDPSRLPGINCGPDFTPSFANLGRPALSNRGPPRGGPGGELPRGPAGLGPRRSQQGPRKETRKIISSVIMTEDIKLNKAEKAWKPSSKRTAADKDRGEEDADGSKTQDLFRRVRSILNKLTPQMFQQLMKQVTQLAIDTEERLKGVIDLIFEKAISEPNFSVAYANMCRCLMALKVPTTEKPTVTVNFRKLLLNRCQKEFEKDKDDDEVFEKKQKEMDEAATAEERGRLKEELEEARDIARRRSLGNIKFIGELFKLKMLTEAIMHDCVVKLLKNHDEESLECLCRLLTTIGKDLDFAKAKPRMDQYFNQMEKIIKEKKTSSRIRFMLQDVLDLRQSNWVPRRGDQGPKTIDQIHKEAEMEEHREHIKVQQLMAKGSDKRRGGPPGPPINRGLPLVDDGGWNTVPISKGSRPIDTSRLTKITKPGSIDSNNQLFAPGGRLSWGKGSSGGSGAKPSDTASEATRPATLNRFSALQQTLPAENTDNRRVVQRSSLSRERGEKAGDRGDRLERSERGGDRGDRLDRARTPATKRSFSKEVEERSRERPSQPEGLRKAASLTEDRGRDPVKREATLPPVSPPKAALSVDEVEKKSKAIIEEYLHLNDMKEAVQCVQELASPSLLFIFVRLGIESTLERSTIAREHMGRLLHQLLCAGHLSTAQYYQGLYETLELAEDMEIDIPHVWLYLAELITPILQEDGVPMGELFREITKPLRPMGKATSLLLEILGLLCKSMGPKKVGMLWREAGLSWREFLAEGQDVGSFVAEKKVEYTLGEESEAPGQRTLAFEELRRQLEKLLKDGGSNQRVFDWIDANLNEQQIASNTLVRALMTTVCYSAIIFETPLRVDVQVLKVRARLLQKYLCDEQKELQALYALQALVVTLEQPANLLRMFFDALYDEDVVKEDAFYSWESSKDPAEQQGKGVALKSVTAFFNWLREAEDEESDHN
The experiment can be described thus: trans-inhibition and eIF4F rescue in Krebs-2 translation extracts. In kind it is biochemical. The conditions noted are these: for effect of added eIF4F on compound-induced inhibition (in words): 100 nM compound, eIF4F 10 nM; for effect of m7GpppG-(AG)10 competitor RNA on (UC)10-FF/HCV/Ren translation (in words): 25-fold molar excess competitor. The source says:
In addition to a primary effect on translation of the target mRNA to which eIF4F is clamped by the rocaglate, this retention is predicted to lead to a reduction in the limiting eIF4F pool available for ribosome recruitment and could exert a trans-inhibitory effect on mRNAs that are not directly-targeted by rocaglates (i.e., absence of polypurine regions in their 5′ leader regions). To test this, we programmed in vitro translation reactions with (UC)10-FF/HCV/Ren mRNA which we found to be unresponsive to CR-1-31-B (23) and RocA (2) (FIG. 22). These were then supplemented with a 25-fold molar excess m^7GpppG-(AG)10 (SEQ ID NO: 10) or ApppG-(AG)10 (SEQ ID NO: 11) competitor RNA (FIG. 30B). […] In contrast, addition of ApppG-(AG)10 (SEQ ID NO: 11) and CR-1-31-B (23) or RocA (2) had little impact on translation of (UC)10-FF/HCV/Ren mRNA, indicating this to be a cap-dependent phenomenon (FIG. 30C, blue dotted line). If rocaglates decrease the pool of active eIF4F complexes, we posit that the addition of eIF4F to translation extracts should rescue rocaglate-mediated inhibition.
FIGS. 30A-30B. Rocaglates exert effects on eIF4F activity. 30A. RPDs performed with m^7GpppG-capped RNA incubated in the presence of retic lysate and either vehicle or 500 nM rocaglate. 30B. Schematic diagram showing assay assessing trans-inhibition of rocaglates. 30C. The presence of m^7GpppG capped, but not ApppG capped, purine-rich RNAs sensitizes the rocaglate-unresponsive m^7GpppG(UC)10-FF/HCV/Ren reporter to inhibition. Translation reactions were performed in Krebs-2 extracts with 10 nM of m^7GpppG(UC)10-FF/HCV/Ren reporter and 250 nM of competitor RNA. Reactions were incubated at 30° C. for 60 min prior to luciferase measurement. n=3±SD. 30D. The addition of recombinant eIF4F rescues rocaglate mediated translation inhibition. The m^7GpppG(AG)10-FF/HCV/Ren reporter was added to Krebs-2 translation extracts in the presence eIF4F and 100 nM of the indicated compound. Reactions were incubated at 30° C. for 60 min prior to luciferase measurement. n≥3, ±SEM

In the case of `COC(=O)[C@@H]1[C@@H](c2ccccc2)[C@]2(c3ccc(OC)cc3)Oc3cc(OC)cc(OC)c3[C@@]23N=C(C)N[C@@]13O` [9b], the “inhibition of (AG)10 versus (UC)10 reporter in cellula (in words)” value (shortened to “inhibition of (AG)10 versus”) in the experiment with HEK 293 cells is “slight preference for inhibiting the (AG)10-FF/HCV/Ren reporter mRNA”.
In the case of `CONC(=O)[C@H]1[C@@H](O)[C@@]2(O)c3c(OC)cc(OC)cc3O[C@@]2(c2ccc(OC)cc2)[C@@H]1c1ccccc1` [CR-1-31-B], the “recruitment of eIF4A1 to RNA baits (in words)” value (“recruitment of eIF4A1” for short) at eIF4A1 is recorded as “eIF4A1 was recruited to the purine-rich mRNA template in a cap-independent manner”. Moreover, at eIF4F, the “effect of added eIF4F on compound-induced inhibition (in words)” value is reported as “partially rescue” and the “effect of m7GpppG-(AG)10 competitor RNA on (UC)10-FF/HCV/Ren translation (in words)” value is “sensitized (UC)10-FF/HCV/Ren mRNA to inhibition”. Also, in the experiment on HEK 293 cells, the “inhibition of (AG)10 versus” value was “showed preference for inhibiting (AG)10-FF/HCV/Ren over (UC)10-FF/HCV/Ren mRNA”.
Consider `COc1ccc([C@@]23Oc4cc(OC)cc(OC)c4[C@]2(O)[C@H](O)[C@H](C(=O)N(C)C)[C@H]3c2ccccc2)cc1` [RocA, rocaglamide A], for which, at eIF4A1, the “recruitment of eIF4A1” value is “eIF4A1 was recruited to the purine-rich mRNA template in a cap-independent manner”. On eIF4F, the “effect of m7GpppG-(AG)10 competitor RNA on (UC)10-FF/HCV/Ren translation (in words)” value is listed as “sensitized (UC)10-FF/HCV/Ren mRNA to inhibition”.
As for `COC(=O)[C@H]1[C@@H](O)[C@@]2(O)c3c(OC)cc(O[C@@H]4O[C@@H]([C@H](O)CO)CO[C@H]4OC)cc3O[C@@]2(c2ccc(OC)cc2)[C@@H]1c1ccccc1` [silvestrol], the “recruitment of eIF4A1” value on eIF4A1 is “induced eIF4A1 binding to both the polypurine and polypyrimidine baits”. Also, on eIF4F, the “effect of added eIF4F on compound-induced inhibition (in words)” value is “partially rescue”. Further, in the experiment with HEK 293 cells, the “inhibition of (AG)10 versus” value is reported as “inhibited both reporters equally”.

(Values after patent US11279708B2, “Amidino- and amino-rocaglates as novel translation inhibitors and anticancer agents” (priority 2019, dated 2022).)
